# Data reported in paper PMC11447181 (Nature Communications, 2024).
# Where “and” joins values, the source holds several entries; their conditions need not be identical. Identical values can stand only once. Entries after “also recorded” stand apart in the source; their conditions may differ.
# Columns and labels:
# [1] = molecular target: T1, hSLC19A3-wt overexpressed in Expi293F cells (Homo sapiens, UniProt Q9BZV2); assay: Mass spectrometry-based cellular thiamine-d3 uptake assay; format: cell-based; settings: 200 μM compound, 2 μM thiamine-d3, 5 min, n = 3
# T1 construct: full-length, wildtype human SLC19A3; expressed in transfected cells; host or cells: Expi293F
# T1 sequence (Q9BZV2 with tags, fused parts or gaps): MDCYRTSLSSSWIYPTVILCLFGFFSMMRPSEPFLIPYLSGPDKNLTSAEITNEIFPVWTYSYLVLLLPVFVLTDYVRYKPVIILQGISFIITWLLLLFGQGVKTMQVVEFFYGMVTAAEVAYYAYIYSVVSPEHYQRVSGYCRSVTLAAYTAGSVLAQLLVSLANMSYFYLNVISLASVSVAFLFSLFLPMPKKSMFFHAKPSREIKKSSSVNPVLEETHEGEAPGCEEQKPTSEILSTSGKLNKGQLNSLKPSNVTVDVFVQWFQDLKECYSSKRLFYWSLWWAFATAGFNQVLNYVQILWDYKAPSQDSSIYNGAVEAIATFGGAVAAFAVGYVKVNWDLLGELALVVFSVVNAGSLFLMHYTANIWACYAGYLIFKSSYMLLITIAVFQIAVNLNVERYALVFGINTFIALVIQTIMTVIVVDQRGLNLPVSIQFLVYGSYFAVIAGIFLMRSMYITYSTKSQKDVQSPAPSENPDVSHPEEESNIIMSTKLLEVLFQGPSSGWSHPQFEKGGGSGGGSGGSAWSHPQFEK
# Experimental: The cells were then pelleted for 5 min at 250×g and resuspended in 1×PBS (pH 7.4) at a cell density of 2 million cells per mL. The cell suspension was subsequently transferred to a 96-deep well plate in three technical replicates per condition (n = 3, 1 mL per well, corresponding to 2 million cells per condition). 200 μM of the selected compounds were added to the respective wells and the cells were incubated for 1 min on a shaking platform. […] Afterwards, the cells were pelleted for 5 min at 500×g and washed 3× with 1 mL 1×PBS (pH7.4), before transferring them to a fresh 96-deep well plate. The cell pellets were stored at –70 °C. For the LC-MS/MS analysis, the samples were extracted by adding 500 µL of a mixture of H2O:MeOH:ACN (1:1:1, v/v), containing 5% (v/v) formic acid. After vortexing and ultrasonication in a water bath for 5 min at 4 °C, samples were incubated for 20 min at –20 °C. […] The supernatants were then transferred for LC-MS analysis, which was initiated within one hour after sample preparation. LC-MS/MS analysis was performed on a Vanquish UHPLC system coupled to an Orbitrap Exploris 240 high-resolution mass spectrometer (Thermo Fisher Scientific, MA, USA) in positive ESI (electrospray ionization) mode. Chromatographic separation was carried out on an Atlantis Premier BEH Z-HILIC column (Waters, MA, USA; 2.1 mm × 100 mm, 1.7 µm) at a flow rate of 0.25 mL/min. The mobile phase consisted of water:acetonitrile (9:1, v/v; mobile phase phase A) and acetonitrile:water (9:1, v/v; mobile phase B), which were modified with a total buffer concentration of 10 mM ammonium formate. The aqueous portion of each mobile phase was adjusted to pH 3.0 via addition of formic acid. The following gradient (8 min total run time including re-equilibration) was applied (time [min]/%B): 0/90, 3/85, 3.5/60, 4/60, 5/90, 8/90. Column temperature was maintained at 40 °C, the autosampler was set to 4 °C and sample injection volume was set to 3 µL. Analytes were recorded via a full scan with a mass resolving power of 120,000 over a mass range from 60 to 900 m/z (scan time: 100 ms, RF lens: 70%).
# All experimental samples were measured in a randomized manner. Pooled quality control (QC) samples were prepared by mixing equal aliquots from each processed sample. Multiple QCs were injected at the beginning of the analysis in order to equilibrate the analytical system. A QC sample was analyzed after every 6th experimental sample to monitor instrument performance throughout the sequence. For determination of background signals and subsequent background subtraction, an additional processed blank sample was recorded. Data was processed using TraceFinder 5.1 and raw peak area data was exported for relative metabolite quantification.
# SLC19A3 = settings: cited from earlier work
# [2] = clinical trial ID NCT01437787; cited from earlier work
# hSLC19A3 N297A = hSLC19A3 N297A (Homo sapiens, UniProt Q9BZV2, N297A); settings: N297A mutant
# Sequence of hSLC19A3 N297A (Q9BZV2 with tags, fused parts or gaps N297A): as the sequence (Q9BZV2 with tags, fused parts or gaps) above, with N297A counted along it
# Experimental: (§1) The thermal stability of the hSLC19A3 constructs and their binding affinities for small molecules were determined by nanoDSF, using a Prometheus NT.48 (NanoTemper Technologies). For sample preparation, the protein was diluted to a final concentration of 4 μM in SEC buffer and supplied with the respective compounds in a concentration range from 2 μM to 2 mM. Before measurement, the samples were incubated for 30 min at room temperature. Melting scans were performed at a temperature range from 20 to 95 °C with a temperature increment of 1 °C per minute. Thermal unfolding curves were recorded by measuring the ratio of the tryptophan-fluorescence at 350 nm (F350) and 330 nm (F330). The protein melting temperature (Tm) of a given sample was determined as the inflection point of the thermal unfolding curves, or the local maximum of its first derivative. The measured curves were analysed using the manufacturer’s software (PR.ThermControl, v 2.1.2, NanoTemper Technologies). Based on the determined Tm values, ligand induced thermal shifts (ΔTm) were determined as the difference between the melting temperature of the ligand-bound state (Tm) and the apo state (Tm^apo).
# As R, Tstd and L are known and the ΔTm and Tm^apo are experimentally determined, non-linear curve fitting can be used to estimate Ea1 and Kd,app. […]
# hSLC19A3-E110Q = hSLC19A3-E110Q (Homo sapiens, UniProt Q9BZV2, E110Q); assay: biochemical; settings: Kd,app for thiamine, E110Q mutant; n = 3
# Sequence of hSLC19A3-E110Q (Q9BZV2 with tags, fused parts or gaps E110Q): as the sequence (Q9BZV2 with tags, fused parts or gaps) above, with E110Q counted along it
# Experimental: as §1
# (§2) As R, Tstd and L are known and the ΔTm and Tm^apo are experimentally determined, non-linear curve fitting can be used to estimate Ea1 and Kd,app. The fitting was performed using symfit (v. 0.5.3), as described in Kotov et al., based on theoretical considerations formulated in Hall, 2019[56].
# hSLC19A3-Glu32Lys = hSLC19A3-Glu32Lys (Homo sapiens, UniProt Q9BZV2, E32K); assay: biochemical; settings: E32K mutant
# Sequence of hSLC19A3-Glu32Lys (Q9BZV2 with tags, fused parts or gaps E32K): as the sequence (Q9BZV2 with tags, fused parts or gaps) above, with E32K counted along it
# Experimental: as §1, §2
# hSLC19A3 Q300A = hSLC19A3 Q300A (Homo sapiens, UniProt Q9BZV2, Q300A); assay: biochemical
# Sequence of hSLC19A3 Q300A (Q9BZV2 with tags, fused parts or gaps Q300A): as the sequence (Q9BZV2 with tags, fused parts or gaps) above, with Q300A counted along it
# Experimental: as §1, §2
# hSLC19A3 Y113A = hSLC19A3 Y113A (Homo sapiens, UniProt Q9BZV2, Y113A); assay: biochemical
# Sequence of hSLC19A3 Y113A (Q9BZV2 with tags, fused parts or gaps Y113A): as the sequence (Q9BZV2 with tags, fused parts or gaps) above, with Y113A counted along it
# Experimental: as §1, §2
# hSLC19A3 Y151F = hSLC19A3 Y151F (Homo sapiens, UniProt Q9BZV2, Y151F); assay: biochemical
# Sequence of hSLC19A3 Y151F (Q9BZV2 with tags, fused parts or gaps Y151F): as the sequence (Q9BZV2 with tags, fused parts or gaps) above, with Y151F counted along it
# Experimental: as §1, §2
# hSLC19A3 F56A = hSLC19A3 F56A (Homo sapiens, UniProt Q9BZV2, F56A); assay: biochemical
# Sequence of hSLC19A3 F56A (Q9BZV2 with tags, fused parts or gaps F56A): as the sequence (Q9BZV2 with tags, fused parts or gaps) above, with F56A counted along it
# Experimental: as §1, §2
# hSLC19A3-Glu320Gln = hSLC19A3-Glu320Gln (Homo sapiens, UniProt Q9BZV2, E320Q); assay: biochemical
# Sequence of hSLC19A3-Glu320Gln (Q9BZV2 with tags, fused parts or gaps E320Q): as the sequence (Q9BZV2 with tags, fused parts or gaps) above, with E320Q counted along it
# Experimental: as §1, §2
# hSLC19A3 Thr422Ala = hSLC19A3 Thr422Ala (Homo sapiens, UniProt Q9BZV2, T422A); assay: biochemical
# Sequence of hSLC19A3 Thr422Ala (Q9BZV2 with tags, fused parts or gaps T422A): as the sequence (Q9BZV2 with tags, fused parts or gaps) above, with T422A counted along it
# Experimental: as §1, §2
# hSLC19A3-Lys44Glu = hSLC19A3-Lys44Glu (Homo sapiens, UniProt Q9BZV2, K44E); assay: biochemical
# Sequence of hSLC19A3-Lys44Glu (Q9BZV2 with tags, fused parts or gaps K44E): as the sequence (Q9BZV2 with tags, fused parts or gaps) above, with K44E counted along it
# Experimental: as §1, §2
# hSLC19A3 Y151A = hSLC19A3 Y151A (Homo sapiens, UniProt Q9BZV2, Y151A); assay: biochemical
# Sequence of hSLC19A3 Y151A (Q9BZV2 with tags, fused parts or gaps Y151A): as the sequence (Q9BZV2 with tags, fused parts or gaps) above, with Y151A counted along it
# Experimental: as §1, §2
# [3] = molecular target: hSLC19A3-gf (N45Q, N166Q) (Homo sapiens, UniProt Q9BZV2, N166Q/N45Q); assay: biochemical
# Sequence of hSLC19A3-gf (N45Q, N166Q) (Q9BZV2 with tags, fused parts or gaps N45Q/N166Q): as the sequence (Q9BZV2 with tags, fused parts or gaps) above, with N45Q, N166Q counted along it
# Experimental: as §1, §2
# hSLC19A3 W59A = hSLC19A3 W59A (Homo sapiens, UniProt Q9BZV2, W59A); assay: biochemical
# Sequence of hSLC19A3 W59A (Q9BZV2 with tags, fused parts or gaps W59A): as the sequence (Q9BZV2 with tags, fused parts or gaps) above, with W59A counted along it
# Experimental: as §1, §2
# OCT1 (SLC22A1) = settings: read-out: Km (thiamine uptake); cited from earlier work
# hSLC19A3-wt = molecular target: T2, hSLC19A3-wt (Homo sapiens, UniProt Q9BZV2); assay: nanoDSF thermal shift assay / apparent binding affinity, wildtype transporter
# T2 construct: full-length, wildtype human SLC19A3; made in house; host or cells: Expi293F
# T2 sequence (Q9BZV2 with tags, fused parts or gaps): as the sequence (Q9BZV2 with tags, fused parts or gaps) above
# MFSD1 = settings: negative control; thiamine titration 1.95 μM to 2 mM
# Experimental: as §1
# SLC19A2 = settings: read-out: Km (thiamine uptake); cited from earlier work
smiles,measurement,setting,value
Cc1cnc(Nc2ccc(OCCN3CCCC3)cc2)nc1Nc1cccc(S(=O)(=O)NC(C)(C)C)c1 [fedratinib],"inhibition of thiamine uptake through hSLC19A3, in words",[1],strongly suppressed the thiamine transport activity of hSLC19A3
same,substrate status at the transporter,SLC19A3,xenobiotic substrates of the transporter
same,adverse event in patients,[2],induced the development of Wernicke’s encephalopathy
Cc1ncc(C[n+]2csc(CCO)c2C)c(N)n1 [thiamine],loss in binding affinity for thiamine versus wildtype,hSLC19A3 N297A,~ 250 fold
same,Kd,hSLC19A3-E110Q,85 µM and 85.2 µM and ~85 µM
same,drop in affinity for thiamine versus wildtype,hSLC19A3-Glu32Lys,10 fold and > 10 fold
same,Kd,"hSLC19A3-Glu32Lys; Kd,app for thiamine, n = 3",145 µM
same,Kd,hSLC19A3 Q300A,5.6 ± 1.4 µM
same,Kd,hSLC19A3 Y113A,15.5 ± 2 µM
same,"effect of mutation on thiamine binding, in words",hSLC19A3 Y113A; Y113A mutant (aromatic clamp),did not impair thiamine binding
same,Kd,hSLC19A3 Y151F,18.7 ± 9.1 µM
same,"effect of mutation on thiamine affinity, in words",hSLC19A3 Y151F; Y151F mutant,no strong effect on the affinity for thiamine was observed
same,Kd,hSLC19A3 F56A,4 ± 0.3 µM
same,Kd,hSLC19A3-Glu320Gln,284 ± 45 µM
same,decrease in affinity for thiamine versus wildtype,hSLC19A3-Glu320Gln; E320Q mutant,20 fold
same,Kd,hSLC19A3 Thr422Ala,172 ± 35 µM
same,Kd,hSLC19A3-Lys44Glu,2.1 ± 0.1 µM
same,affinity for thiamine versus wildtype,hSLC19A3-Lys44Glu; K44E mutant,six-fold higher affinity
same,Kd,hSLC19A3 Y151A,17.8 ± 1.8 µM
same,Kd,[3],10.4 ± 0.9 µM
same,"effect of the glycosylation-site mutations on thiamine binding, in words",[3]; thermal stability experiments,did not show any interference of these mutations with thiamine binding
same,Kd,hSLC19A3 W59A,8.3 ± 1 µM
same,"effect of mutation on thiamine binding, in words",hSLC19A3 W59A; W59A mutant (aromatic clamp),did not impair thiamine binding
same,Km,OCT1 (SLC22A1),~780 µM
same,Kd,"hSLC19A3-wt; Kd,app (apparent dissociation constant), concentration-dependent thermal shifts, fitted for 25 °C, n = 3, mean ± s.d.",~12 µM and 12.7 µM
same,ΔTm at 2000 µM,hSLC19A3-wt; read-out: ΔTm (thermal stabilisation of hSLC19A3),10.9 ± 0.3 °C
same,"thermal shift / interaction with hSLC19A3, in words",hSLC19A3-wt; thermal shift screen at 20 μM and 200 μM compound,induces a strong stabilisation; also recorded: strong stabilisation of the transporter
same,"response to thiamine, in words",MFSD1,shows no response to thiamine
same,Km,SLC19A3; read-out: Km (thiamine uptake),2 to 7 µM
same,Km,SLC19A2,2 to 7 µM
